Assay results as given in ChEMBL document CHEMBL4819067, “Discovery of novel pyrimidine molecules containing boronic acid as VCP/p97 Inhibitors” (Bioorg Med Chem, 2021).

What was measured:
RPMI-8226 = experiment: Cytotoxicity against human RPMI-8226 cells assessed as reduction in cell viability incubated for 72 hrs by CCK8 assay; format: functional, cell-based
[1] = molecular target: Transitional endoplasmic reticulum ATPase (Homo sapiens, UniProt P55072); experiment: Inhibition of p97 (unknown origin) incubated for 60 mins by ADP-Glo assay
A549 = experiment: Cytotoxicity against human A549 cells assessed as reduction in cell viability incubated for 72 hrs by CCK8 assay; format: functional, cell-based; details: A549, 72 h
[2] = Homo sapiens, RPMI-8226, 72 h, read-out: IC50

Chain of Transitional endoplasmic reticulum ATPase (P55072 whole entry): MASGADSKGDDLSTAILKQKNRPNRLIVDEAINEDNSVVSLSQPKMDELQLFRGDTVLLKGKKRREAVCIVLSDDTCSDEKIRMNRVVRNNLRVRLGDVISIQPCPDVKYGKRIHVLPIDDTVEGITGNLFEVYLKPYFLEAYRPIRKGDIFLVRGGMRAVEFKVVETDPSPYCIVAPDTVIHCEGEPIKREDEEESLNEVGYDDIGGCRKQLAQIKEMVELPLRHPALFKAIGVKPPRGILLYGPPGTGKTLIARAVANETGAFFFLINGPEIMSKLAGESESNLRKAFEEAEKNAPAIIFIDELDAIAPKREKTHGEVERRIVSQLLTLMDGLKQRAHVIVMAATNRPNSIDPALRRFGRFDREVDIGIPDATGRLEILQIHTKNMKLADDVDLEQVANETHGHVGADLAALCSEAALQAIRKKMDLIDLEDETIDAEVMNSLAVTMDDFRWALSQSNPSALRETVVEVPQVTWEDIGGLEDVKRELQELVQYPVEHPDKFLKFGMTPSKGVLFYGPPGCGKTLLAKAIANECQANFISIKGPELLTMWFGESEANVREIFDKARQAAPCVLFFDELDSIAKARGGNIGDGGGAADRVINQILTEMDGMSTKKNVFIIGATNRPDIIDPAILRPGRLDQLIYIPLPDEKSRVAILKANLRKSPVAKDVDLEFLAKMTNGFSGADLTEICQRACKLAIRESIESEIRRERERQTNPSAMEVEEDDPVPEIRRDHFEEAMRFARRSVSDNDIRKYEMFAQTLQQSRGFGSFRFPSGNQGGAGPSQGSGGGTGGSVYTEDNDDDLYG

Compound	IC50 (RPMI-8226; [2]) [nM]	IC50 [1] [nM]	IC50 (A549) [nM]	IC50 (RPMI-8226; rpmi-8226)
CC#CC(=O)Nc1cccc2c1cc(C)n2-c1ncc(OC)c(NCc2cccc(B(O)O)c2)n1	2400	32	6100	
COc1cnc(-n2c(C)cc3c(NC(=O)c4ccco4)cccc32)nc1NCc1cccc(B(O)O)c1	1900	97.4	3770	
Cc1cc2c(NC(=O)c3ccco3)cccc2n1-c1nc(NCc2cccc(B(O)O)c2)c2ccccc2n1	3200	162	5800	
C#CC(=O)Nc1cccc2c1cc(C)n2-c1nc2c(c(NCc3cccc(B(O)O)c3)n1)CCC2	1270	91.4	2100	
Cc1cc2c(NC(=O)CCl)cccc2n1-c1nc2c(c(NCc3cccc(B(O)O)c3)n1)CCC2		258		
CC#CC(=O)Nc1cccc2c1cc(C)n2-c1nc2c(c(NCc3cccc(B(O)O)c3)n1)CCC2	1730	58.6	3150	
Cc1cc2c(NC(=O)CCCl)cccc2n1-c1nc2c(c(NCc3cccc(B(O)O)c3)n1)CCC2		436		
Cc1cc2c(NS(C)(=O)=O)cccc2n1-c1nc2c(c(NCc3cccc(B(O)O)c3)n1)COCC2	5100	117	> 10000	
Cc1cc2c(NC(=O)c3ccco3)cccc2n1-c1nc2c(c(NCc3cccc(B(O)O)c3)n1)CCC2	2300	57.3	3550	
C=CC(=O)Nc1cccc2c1cc(C)n2-c1nc2c(c(NCc3cccc(B(O)O)c3)n1)CCC2	2940	192	4750	
Cc1cc2c(NC(=O)c3ccco3)cccc2n1-c1nc2c(c(NCc3cccc(B(O)O)c3)n1)CCCC2	2330	93.4	3120	
Cc1cc2c(NC(=O)CC#N)cccc2n1-c1nc2c(c(NCc3cccc(B(O)O)c3)n1)CCC2		692		
Cc1cc2c(NS(C)(=O)=O)cccc2n1-c1nc2c(c(NCc3cccc(B(O)O)c3)n1)CCCC2	1550	45.6	2420	
CC#CC(=O)Nc1cccc2c1cc(C)n2-c1nc(NCc2cccc(B(O)O)c2)c2ccccc2n1	2200	114	5600	
Cc1cc2c(NC(=O)c3cscn3)cccc2n1-c1nc2c(c(NCc3cccc(B(O)O)c3)n1)CCC2		468		
Cc1cc2c(NC(=O)c3ccco3)cccc2n1-c1nc2c(c(NCc3cccc(B(O)O)c3)n1)COCC2	2700	91	4380	
Cc1cc2c(NS(C)(=O)=O)cccc2n1-c1nc2c(c(NCc3cccc(B(O)O)c3)n1)CCC2	860	54.7	2800	
CC#CC(=O)Nc1cccc2c1cc(C)n2-c1nc2c(c(NCc3cccc(B(O)O)c3)n1)CCCC2	1500	89.8	2150	
Cc1cc2c(NS(C)(=O)=O)cccc2n1-c1nc(NCc2cccc(B(O)O)c2)c2ccccc2n1	3600	88.9	5600	
CC#CC(=O)Nc1cccc2c1cc(C)n2-c1nc2c(c(NCc3cccc(B(O)O)c3)n1)COCC2	2900	117	4100	
Cc1cc2c(NC(=O)c3ccno3)cccc2n1-c1nc2c(c(NCc3cccc(B(O)O)c3)n1)CCC2		241		
C/C=C/C(=O)Nc1cccc2c1cc(C)n2-c1nc2c(c(NCc3cccc(B(O)O)c3)n1)CCC2		166	4450	Not Active
